{
  "source": "patent US20030082227A1",
  "about": "“Transdermal device comprising a reservoir and a matrix containing the same active principle” (priority 1999, published 2003)",
  "assay": "Solubility of testosterone in tetrahydrofuran",
  "format": "physicochemical",
  "data": [
    {"smiles": "C[C@]12CC[C@H]3[C@@H](CCC4=CC(=O)CC[C@@]43C)[C@@H]1CC[C@@H]2O", "note": "[testosterone, 17β-hydroxyandrost-4-en-3-one]", "values": [
      {"measurement": "solubility of testosterone in THF", "result": "~27", "unit": "% m/m"}
    ]}
  ]
}
